Earlier results, collected in patent publication US9974743B2, “Device and method for delivery of a medicament” (Philip Morris Products S.A., priority 2009, dated 2018).

Settings: 25° C.

CN1CCCC1c1cccnc1 (stereo not shown) [Nicotine Control, Nicotine]
vapor pressure: 0.04 mm Hg
